Test: Aerodynamic particle size distribution, Next Generation Pharmaceutical Impactor (NGI)
Type: physicochemical
Conditions: sample 2 (GB 1.13 mg/ml; pH 3.0), soft mist inhaler, NGI 30 L/minute, RH 90%, HPLC per active
Procedure: The aerodynamic particle size distribution was determined using a Next Generation Pharmaceutical Impactor (NGI). The soft mist inhaler was held close to the NGI inlet until no aerosol was visible. The flow rate of the NGI was set to 30 L/minute and was operated under ambient temperature and a relative humidity (RH) of 90%.
The solution of sample 2 was discharged into the NGI. Fractions of the dose were deposited at different stages of the NGI, in accordance with the particle size of the fraction. Each fraction was washed from the stage and analyzed using HPLC.
The particle size distribution was expressed in terms of mass median aerodynamic diameter (MMAD) and Geometric Standard Deviation (GSD). […] The sample is sample 2 as described in Example 4 (GB 1.13 mg/ml; pH 3.0). The aerodynamic particle size distribution of sample 2 was investigated by means of the original research device of TB-OH and a new generation of cascade impactor.

COc1ccc(CC(C)(C)NC[C@H](O)c2cc(O)cc3c2OCC(=O)N3)cc1.Cl [Olodaterol hydrochloride, 2H-1,4-Benzoxazin-3H(4H)-one, 6-hydroxy-8-[(1R)-1-hydroxy-2-[[2-(4-methoxyphenyl)-1,1-dimethylethyl]-amino]ethyl], monohydrochloride]
GSD: 1.79 | MMAD (μm): 4.01 μm

(3RS)-3-[(2SR)-(2-cyclopentyl-2-hydroxy-2-penylacetyl)oxy]-1,1-dimethlypyrrolidinium bromide [Glycopyrrolate]
GSD: 1.77 | MMAD (μm): 4.05 μm
